Laboratory results published in patent US9693971B2, “Compositions for alleviating gastrointestinal tract disorders or associated systemic disorders in ruminants and camelids” (FREIE UNIVERSITÄT BERLIN, priority 2012, dated 2017).
“Also recorded” adds a separate entry of the source.

How the values were obtained:
TRPV4 = TRPV4 (Homo sapiens, UniProt Q9HBA0); settings: cited from earlier work
TRPM8 = TRPM8 (Homo sapiens, UniProt Q7Z2W7); settings: cited from earlier work
[1] = system: rumen epithelium from cattle; assay: Ussing chamber: ammonium-induced transepithelial short-circuit current (Isc) across isolated rumen epithelium; assay type: cell-based; settings: for influence on ammonium-induced conductivity / transport across rumen epithelium (profile in words): no concentration stated
Text: The experiments on the intact epithelium take place as already specified (Abdoun, Stumpff et al. 2005; Abdoun, Stumpff et al. 2010). The measuring techniques used are a combination of the Ussing chamber technique developed by Ussing (1949) and the microelectrode technique.
When examining epithelial transport processes with the Ussing chamber, the epithelium is installed in a special chamber, which makes it possible to rinse the two sides of the epithelium (apical: food side; basolateral: blood side) separately of each other with buffer solutions of various composition, wherein the electrophysiological parameters (current and voltage) across the epithelium are traced. Hereby, it is made possible to differentiate between the transport of an uncharged substance (e.g. ammonia, NH3) and the transport of a charged substance (e.g. ammonium, NH4^+), as the former takes place without a change in current and voltage, whereas the latter is coupled with the transfer of a charge and thus changes the transepithelial electrical parameters.
With the help of a special modification, the reaction of individual epithelia to solution changes, taking place very rapidly and smoothly, is also examined over time. Hereby, for example, the reproducibility of a pharmacological intervention on the same piece of epithelium can very well be examined. This modification of the classic Ussing chamber technique is particularly, albeit not exclusively, used for the comparative “screening” of the various substances which are subject of an aspect of the present invention.
The epithelium is horizontally clamped into a modified Ussing chamber, wherein the mucosal side faces upwards. The chamber made of plexi-glass has a cross-section surface of 0.79 cm^2, which is corrected to 1 cm^2. As a protection against damages on the edges of the epithelium, “edge damage”, a silicone ring is in each case placed between chamber and epithelium. The two resulting chambers (mucosal and serosal) are each supplied by their own perfusion system (4-channel-stand-pump, Ismatec SA). With three-way valves, an independent solution change between altogether eight solutions is possible in the two chambers. During storage, the solutions are gassed in their containers with 100% O2. To warm the solutions up to 37° C., the thin perfusion tubes run through a heat exchanger pump. The suction device (Masterflex R/S, Cole Parmer Instrument Company) present in both chambers guarantees a rapid and safe change of solution. In order to ensure that there are no solution change artefacts when adding agonists and antagonists, the substances are pipetted into the respective solution, wherein the gassing ensures a rapid mixing. In this way, pressure fluctuations or an interruption of the flow through the chamber can be safely precluded.
As in the conventional Ussing chamber technique, there are in each case two electrodes near the tissue and two electrodes distant from the tissue for measuring the transepithelial potential difference and the transepithelial current (Isc). The connections between the Ag/AgCl electrodes, which are filled with 3 M KCl, are established via agar bridges. Just as in Strecker (Strecker 2011), the measuring chamber is connected to a “voltage clamp” installation (Ussing chamber unit) in assembly with a microelectrode amplifier (both Biomedical Instruments Co., Germering). A micromanipulator (MF 500) installed above the measuring chamber offers the possibility to move the microelectrode in fine μm steps. Additionally, a microscope as well as a cold-light source are located above the apparatus.
Menthol (Sigma-Aldrich) was dissolved at a concentration of 1 mol·l^−1 in ethanol and pipetted into the used test solution containing ammonium. For an end concentration of 1 mmol·l^−1, 20 μl of this stock solution was added to 20 ml test solution; for 200 μmol·l^−1 correspondingly less. In control experiments, corresponding amounts of pure ethanol were added to the test solution.

TRPV3 = biological target: T1, TRPV3 (Homo sapiens, UniProt Q8NET8); settings: cited from earlier work
T1 sequence (Q8NET8 1-790): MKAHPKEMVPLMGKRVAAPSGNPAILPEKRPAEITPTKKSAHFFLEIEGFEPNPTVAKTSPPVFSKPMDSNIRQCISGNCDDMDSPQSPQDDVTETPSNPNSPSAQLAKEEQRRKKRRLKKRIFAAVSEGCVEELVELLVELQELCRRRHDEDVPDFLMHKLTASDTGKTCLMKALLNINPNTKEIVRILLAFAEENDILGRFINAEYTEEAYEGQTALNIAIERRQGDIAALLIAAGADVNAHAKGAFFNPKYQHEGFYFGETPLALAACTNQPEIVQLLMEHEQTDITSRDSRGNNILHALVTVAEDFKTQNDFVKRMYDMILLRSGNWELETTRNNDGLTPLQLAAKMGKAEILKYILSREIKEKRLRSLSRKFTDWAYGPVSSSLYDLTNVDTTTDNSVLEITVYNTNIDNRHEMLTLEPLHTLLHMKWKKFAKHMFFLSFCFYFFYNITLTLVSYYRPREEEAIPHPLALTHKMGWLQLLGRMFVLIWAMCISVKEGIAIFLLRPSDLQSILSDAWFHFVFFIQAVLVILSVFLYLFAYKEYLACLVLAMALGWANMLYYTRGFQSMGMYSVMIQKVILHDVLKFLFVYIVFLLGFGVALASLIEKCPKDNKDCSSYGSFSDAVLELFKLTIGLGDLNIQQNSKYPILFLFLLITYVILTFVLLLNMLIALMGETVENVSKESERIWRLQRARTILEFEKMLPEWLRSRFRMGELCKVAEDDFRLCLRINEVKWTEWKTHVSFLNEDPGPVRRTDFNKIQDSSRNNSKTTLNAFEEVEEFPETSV

E. coli = settings: 0.3% menthol in feed dry mass (8 g menthol/day) for 30 days, bulls; cited from earlier work
TRPA1 = TRPA1 (Homo sapiens, UniProt O75762); settings: cited from earlier work
rumen epithelium [2] = assay: Ca^45 calcium flux across rumen epithelium in conventional Ussing chambers, menthol vs control group; assay type: cell-based; settings: menthol 200 μM or 1 mM; N=4 cattle, n=85 epithelia; FIG. 10A
Text: (§1) Supplementary, the transport rate of a substance across the epithelium is quantitatively determined by examining the buffer solution prior to and after a defined test period (in conjunction with the methods of an aspect of the present invention for determining the ammonia flux by means of an ammonia electrode (Thermo Scientific Orion 9512HPBNWP, Thermo Fisher Scientific Inc., Waltham, Mass. 02454) while at the same time registering shifts in the solution pH, or measuring the calcium flux with radioactive isotopes).
(§2) For a direct verification of a modulation of the calcium transport across the rumen epithelium, a radioactive calcium isotope (Ca^45) was employed in further experiments. The measurements were carried out in conventional Ussing chambers without continuous perfusion. Herein, tissue of N=4 (cattle) was collected and n=85 epithelia were used therein.
(§3) The isotope was employed on the mucosal side (corresponding to the side on which the food is) and the emergence on the blood side was measured.
Approach: Three groups were formed. One group remained untreated as control. The other two groups were each treated with menthol at a dose of 200 μM or 1 mM, respectively, and compared to the control (100%).

rumen epithelium [3] = assay: Ca^45 calcium flux across rumen epithelium in conventional Ussing chambers, thymol vs basal value; assay type: cell-based, one cow, one sheep; settings: after adding thymol; N=2, n=44 epithelia; FIG. 10B
Text: as §1, §2, §3
Approach: First, a basal value of the Ca flux across the rumen epithelium was detected. Then a substance was added. The subsequently measured Ca flux was compared to the starting value (100%). […]

[4] = corresponding to 30 g/60 l; cited from earlier work
bacteria flora = settings: 1.5 mM thymol (corresponding to 14 g/60 l ruminal fluid); cited from earlier work
[5] = system: bacteria flora in the ruminal fluid; settings: in vitro, thymol 3-12 g/60 l; cited from earlier work
TRPV2 = biological target: T2, TRPV2 (Homo sapiens, UniProt Q9Y5S1); settings: cited from earlier work
T2 sequence (Q9Y5S1 1-764): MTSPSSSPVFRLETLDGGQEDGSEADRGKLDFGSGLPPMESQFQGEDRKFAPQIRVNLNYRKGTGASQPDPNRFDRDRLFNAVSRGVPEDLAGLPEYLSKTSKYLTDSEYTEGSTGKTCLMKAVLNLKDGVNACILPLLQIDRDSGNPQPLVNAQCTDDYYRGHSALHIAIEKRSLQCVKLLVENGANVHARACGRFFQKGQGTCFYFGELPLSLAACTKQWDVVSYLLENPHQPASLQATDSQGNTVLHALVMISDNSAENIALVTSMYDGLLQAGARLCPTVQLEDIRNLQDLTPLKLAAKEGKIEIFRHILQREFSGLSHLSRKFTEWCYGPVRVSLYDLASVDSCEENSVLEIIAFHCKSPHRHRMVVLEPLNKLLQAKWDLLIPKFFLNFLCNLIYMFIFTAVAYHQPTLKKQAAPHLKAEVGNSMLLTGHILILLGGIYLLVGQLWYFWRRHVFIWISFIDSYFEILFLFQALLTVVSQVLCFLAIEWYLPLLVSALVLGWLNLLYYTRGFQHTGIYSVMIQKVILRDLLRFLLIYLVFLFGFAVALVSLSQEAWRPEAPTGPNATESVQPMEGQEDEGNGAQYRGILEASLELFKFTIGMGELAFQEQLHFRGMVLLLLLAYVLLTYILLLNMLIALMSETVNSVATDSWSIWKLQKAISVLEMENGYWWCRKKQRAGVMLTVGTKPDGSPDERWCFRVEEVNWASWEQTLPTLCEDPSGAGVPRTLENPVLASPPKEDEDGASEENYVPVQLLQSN

TRPA1, sequence (O75762 whole entry, species assumed): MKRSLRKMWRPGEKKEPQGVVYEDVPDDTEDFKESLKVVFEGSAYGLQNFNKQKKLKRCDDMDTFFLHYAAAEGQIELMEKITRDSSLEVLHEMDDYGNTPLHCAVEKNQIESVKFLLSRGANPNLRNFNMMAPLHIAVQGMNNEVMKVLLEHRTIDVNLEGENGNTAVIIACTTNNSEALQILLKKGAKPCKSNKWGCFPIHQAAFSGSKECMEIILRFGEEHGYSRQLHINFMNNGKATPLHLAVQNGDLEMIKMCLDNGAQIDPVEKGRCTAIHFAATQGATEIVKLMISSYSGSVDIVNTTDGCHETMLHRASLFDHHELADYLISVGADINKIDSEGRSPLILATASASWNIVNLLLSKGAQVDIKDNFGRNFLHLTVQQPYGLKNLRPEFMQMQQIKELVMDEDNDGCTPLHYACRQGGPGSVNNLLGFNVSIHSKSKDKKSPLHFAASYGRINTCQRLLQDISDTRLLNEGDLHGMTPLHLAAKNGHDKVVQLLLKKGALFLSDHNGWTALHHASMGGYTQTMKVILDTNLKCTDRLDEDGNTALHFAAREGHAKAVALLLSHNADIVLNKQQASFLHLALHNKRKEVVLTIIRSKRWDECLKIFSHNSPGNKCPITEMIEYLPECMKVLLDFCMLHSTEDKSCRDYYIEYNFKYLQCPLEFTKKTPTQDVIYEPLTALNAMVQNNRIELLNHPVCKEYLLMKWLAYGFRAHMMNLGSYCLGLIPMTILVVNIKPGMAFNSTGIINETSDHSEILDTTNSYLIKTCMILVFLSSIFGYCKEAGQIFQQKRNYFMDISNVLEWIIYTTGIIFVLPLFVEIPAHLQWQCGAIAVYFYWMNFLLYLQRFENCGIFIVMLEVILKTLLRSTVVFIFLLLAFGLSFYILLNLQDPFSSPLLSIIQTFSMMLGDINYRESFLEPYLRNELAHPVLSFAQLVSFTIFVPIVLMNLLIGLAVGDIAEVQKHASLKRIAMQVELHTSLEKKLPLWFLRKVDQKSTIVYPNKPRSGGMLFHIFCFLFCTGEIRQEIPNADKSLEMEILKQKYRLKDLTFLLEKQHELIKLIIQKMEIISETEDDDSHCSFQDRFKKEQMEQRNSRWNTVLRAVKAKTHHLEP
TRPM8, sequence (Q7Z2W7 whole entry, species assumed): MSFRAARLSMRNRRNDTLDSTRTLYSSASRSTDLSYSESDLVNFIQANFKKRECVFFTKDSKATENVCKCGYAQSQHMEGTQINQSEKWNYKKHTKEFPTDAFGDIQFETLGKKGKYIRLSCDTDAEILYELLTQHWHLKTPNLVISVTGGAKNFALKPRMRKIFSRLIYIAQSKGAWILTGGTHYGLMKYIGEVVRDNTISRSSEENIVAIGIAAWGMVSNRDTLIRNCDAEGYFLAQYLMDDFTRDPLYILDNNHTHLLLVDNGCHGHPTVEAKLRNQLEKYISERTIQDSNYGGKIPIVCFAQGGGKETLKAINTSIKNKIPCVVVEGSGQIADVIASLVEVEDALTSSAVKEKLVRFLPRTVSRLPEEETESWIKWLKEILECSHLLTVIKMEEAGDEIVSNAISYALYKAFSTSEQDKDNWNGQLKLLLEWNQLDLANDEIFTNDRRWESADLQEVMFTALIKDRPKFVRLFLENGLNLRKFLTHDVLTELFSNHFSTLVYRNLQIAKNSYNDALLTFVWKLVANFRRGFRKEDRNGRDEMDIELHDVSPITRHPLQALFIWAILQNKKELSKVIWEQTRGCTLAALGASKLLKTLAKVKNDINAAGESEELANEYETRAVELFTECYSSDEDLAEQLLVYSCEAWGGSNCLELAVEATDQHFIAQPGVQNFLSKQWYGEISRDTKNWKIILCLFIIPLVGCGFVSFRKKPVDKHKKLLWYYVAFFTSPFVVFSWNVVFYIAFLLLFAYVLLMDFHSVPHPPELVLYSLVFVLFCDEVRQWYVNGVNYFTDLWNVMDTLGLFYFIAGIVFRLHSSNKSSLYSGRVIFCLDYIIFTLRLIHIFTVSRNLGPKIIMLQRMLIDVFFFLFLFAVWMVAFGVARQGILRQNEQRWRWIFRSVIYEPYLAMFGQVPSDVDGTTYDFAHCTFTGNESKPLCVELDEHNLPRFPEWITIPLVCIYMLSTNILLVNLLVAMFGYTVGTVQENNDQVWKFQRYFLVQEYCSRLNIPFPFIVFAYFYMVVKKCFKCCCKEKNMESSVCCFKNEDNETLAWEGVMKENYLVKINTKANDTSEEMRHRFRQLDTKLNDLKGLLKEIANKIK
TRPV4, sequence (Q9HBA0 whole entry, species assumed): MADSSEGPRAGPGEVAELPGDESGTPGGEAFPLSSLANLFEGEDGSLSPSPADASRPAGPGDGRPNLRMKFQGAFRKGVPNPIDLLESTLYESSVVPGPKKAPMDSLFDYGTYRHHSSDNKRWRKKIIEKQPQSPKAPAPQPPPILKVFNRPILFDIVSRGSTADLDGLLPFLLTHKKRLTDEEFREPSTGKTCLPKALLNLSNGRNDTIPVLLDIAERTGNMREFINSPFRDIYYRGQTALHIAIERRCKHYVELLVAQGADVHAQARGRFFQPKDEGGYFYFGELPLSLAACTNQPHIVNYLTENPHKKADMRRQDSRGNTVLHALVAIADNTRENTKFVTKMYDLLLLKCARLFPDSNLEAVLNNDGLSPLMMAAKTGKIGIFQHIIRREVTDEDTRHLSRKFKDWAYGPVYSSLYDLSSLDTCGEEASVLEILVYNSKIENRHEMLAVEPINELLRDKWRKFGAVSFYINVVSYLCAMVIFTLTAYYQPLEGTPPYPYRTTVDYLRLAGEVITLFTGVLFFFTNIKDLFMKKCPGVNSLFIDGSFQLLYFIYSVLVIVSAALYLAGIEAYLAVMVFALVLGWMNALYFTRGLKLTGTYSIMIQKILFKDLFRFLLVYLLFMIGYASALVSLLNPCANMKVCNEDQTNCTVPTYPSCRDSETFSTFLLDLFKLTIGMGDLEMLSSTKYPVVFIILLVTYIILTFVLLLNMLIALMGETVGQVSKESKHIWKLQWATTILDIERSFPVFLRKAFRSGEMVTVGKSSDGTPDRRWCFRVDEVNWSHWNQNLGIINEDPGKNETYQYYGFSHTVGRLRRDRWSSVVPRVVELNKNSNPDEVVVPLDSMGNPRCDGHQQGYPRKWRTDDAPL

In the case of `C=C1CC[C@@H]2[C@](C)(CO)[C@H](O)CC[C@@]2(C)[C@@H]1/C=C/C1=CC(C(C[C@@H]2C(=C)CC[C@@H]3[C@](C)(CO)[C@H](O)CC[C@]32C)C2=CCOC2=O)OC1=O` (some centres unmarked) [Bisandrographolide A], the “Effect on TRPV4” value (TRPV4) is listed as “Agonist”.

In the case of `CC1CCC(C(C)C)C(O)C1` (centres unmarked) [menthol], the “Effect on TRPM8” value (TRPM8) is listed as “potent TRPM8 agonist”, the “transepithelial current, Median” value ([1]; 200 μM menthol in 40 mM NH4^+, n=11, before −30.65) is listed as −34.21 μA · cm^−2 and the “transepithelial current, MV” value ([1]; 200 μM menthol in 40 mM NH4^+, n=11, before −30.99, washout −26.42) is listed as −36.34 μA · cm^−2. The “change of transepithelial current or voltage” value ([1]; 200 μmol·l^−1 to 1 mmol·l^−1 added to solution containing ammonium, apical) was “further considerable rise in the transepithelial current”, the “change of short-circuit current (Isc)” value ([1]; 1 mM menthol after 40 mM NH4Cl mucosal, FIG. 1 and 2, 13 measurements, three epithelia) was “further rise in that current; also recorded: statistically significant increase in the current across the epithelium” and the “transepithelial current, Median” value ([1]; 1 mM menthol in 40 mM NH4^+, n=12, before −22.76) was −26.90 μA · cm^−2. The “transepithelial current, MV” value ([1]; 1 mM menthol in 40 mM NH4^+, n=12, before −24.20, washout −20.88) was −28.73 μA · cm^−2, the “influence on ammonium-induced conductivity / transport across rumen epithelium (profile in words)” value [1] was “significantly influenced” and the “Effect on TRPV3” value (TRPV3) was “nonspecific”. The “influence on the amount of E. coli in the feces” value (E. coli) was “no influence on the amount of E. coli in the feces”, the “Effect on TRPA1” value (TRPA1) was “Antagonist” and the “calcium transport across the rumen tissue compared to control group (100%)” value (rumen epithelium [2]) was “concentration-dependent increase in the calcium transport”.

In the case of `Cc1ccc(C(C)C)c(O)c1` [thymol], the “Ca flux across the rumen epithelium compared to starting value (100%)” value (rumen epithelium [3]) was “no significant long-term reduction of the calcium transport; also recorded: trend to increase the calcium resorption”, the “transepithelial current, Median” value ([1]; 100 μM thymol in 40 mM NH4^+, n=4, before −19.30) was −19.35 μA · cm^−2 and the “transepithelial current, MV” value ([1]; 100 μM thymol in 40 mM NH4^+, n=4, before −22.47, washout −15.82, p = 0.498) was −22.19 μA · cm^−2. The “influence on ammonium-induced conductivity / transport across rumen epithelium (profile in words)” value [1] was “inhibition, which can still be verified after washing out”, the “concentration with significant influence on pH, NH3 concentration and production of volatile fatty acids (VFA)” value [4] was at least 500 mg/1 and the “Effect on TRPV3” value (TRPV3) was “TRPV3 agonist; also recorded: nonspecific”. The “influence on methane, ammonium, acetate and propionate production” value (bacteria flora) was “no influence on the methane, ammonium, acetate and propionate production” and the “effect on the bacteria flora in the ruminal fluid” value [5] was “no effect on the bacteria flora in the ruminal fluid”.

In the case of `CCCCCc1cc(O)c2c(c1)OC(C)(C)[C@@H]1CCC(C)=C[C@@H]21` [Tetrahydrocannabinol, tetrahydrocannabinol], the “Effect on TRPV2” value (TRPV2) is given as “Agonist” and the “Effect on TRPA1” value (TRPA1) is given as “Agonist”.
